Reference: PubChem BioAssay AID1645861 (Buhrlage Lab, Dana-Farber Cancer Institute and Novartis …, 2021)
Active and inactive are the calls of the source.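 The calls were made as follows: active = compounds whose peak USP7 inhibition across the dose series reached 30% or more; inactive = the rest.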

What follows are compounds tested against Ubiquitin carboxyl-terminal hydrolase 7 (Homo sapiens) (UniProt Q93009) (assay: Biochemical concentration-response for ubiquitin-specific peptidase 7 DUB inhibitors, verifying primary hits (AID 1645861)). Conditions: purified USP7, Ub-rhodamine cleavage fluorescence, 60 min.
Ubiquitin carboxyl-terminal hydrolase 7 (Homo sapiens), sequence (Q93009 whole entry, looked up): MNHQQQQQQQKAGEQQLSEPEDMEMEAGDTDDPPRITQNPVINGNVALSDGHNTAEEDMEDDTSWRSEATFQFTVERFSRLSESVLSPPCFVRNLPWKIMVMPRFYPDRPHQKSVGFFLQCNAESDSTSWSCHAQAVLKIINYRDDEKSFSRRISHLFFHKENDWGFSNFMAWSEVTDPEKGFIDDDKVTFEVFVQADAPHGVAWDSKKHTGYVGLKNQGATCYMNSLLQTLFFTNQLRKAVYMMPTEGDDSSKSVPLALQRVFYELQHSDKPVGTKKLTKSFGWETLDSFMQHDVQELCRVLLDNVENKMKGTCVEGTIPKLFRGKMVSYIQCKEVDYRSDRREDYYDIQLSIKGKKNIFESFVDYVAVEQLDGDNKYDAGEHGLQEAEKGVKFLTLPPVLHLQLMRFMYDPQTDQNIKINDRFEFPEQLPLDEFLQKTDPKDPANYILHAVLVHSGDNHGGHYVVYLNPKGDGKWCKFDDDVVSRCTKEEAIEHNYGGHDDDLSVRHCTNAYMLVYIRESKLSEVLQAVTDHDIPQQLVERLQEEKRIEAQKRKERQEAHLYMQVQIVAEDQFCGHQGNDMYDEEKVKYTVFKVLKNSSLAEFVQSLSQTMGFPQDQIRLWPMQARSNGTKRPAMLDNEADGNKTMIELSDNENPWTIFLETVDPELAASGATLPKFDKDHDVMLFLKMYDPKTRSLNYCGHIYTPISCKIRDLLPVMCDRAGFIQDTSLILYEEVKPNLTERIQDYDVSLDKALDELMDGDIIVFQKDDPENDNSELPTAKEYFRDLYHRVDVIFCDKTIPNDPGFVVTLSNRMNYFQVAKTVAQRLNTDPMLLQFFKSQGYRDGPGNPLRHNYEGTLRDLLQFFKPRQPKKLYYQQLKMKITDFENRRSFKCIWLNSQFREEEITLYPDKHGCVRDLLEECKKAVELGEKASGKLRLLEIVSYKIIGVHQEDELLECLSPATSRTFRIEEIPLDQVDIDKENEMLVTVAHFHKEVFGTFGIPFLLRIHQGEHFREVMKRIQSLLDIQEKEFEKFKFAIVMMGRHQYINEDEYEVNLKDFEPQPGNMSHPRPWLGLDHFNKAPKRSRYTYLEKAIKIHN

| SMILES | IC50 |
| --- | --- |
| Cc1nc(N2CCN(c3ccc(Cl)cc3)CC2)c2oc3ccccc3c2n1 | > 50 µM (inactive) |
| CC(C)[C@H]1CC[C@@]2(CO2)[C@H]2C(=O)OCC(C(=O)O)=C[C@H]12 | > 50 µM (inactive) |
| Cn1c(=O)c(C(=O)Nc2ccc(Br)cc2)nc2ccccc21 | > 50 µM (inactive) |
| COc1ccccc1CNC(=O)CCCCn1c(=O)c2ccccc2n(CC(=O)Nc2ccc(C)cc2C)c1=O | > 50 µM (inactive) |
| Cc1ccccc1NC(=O)c1nc(-c2cn(Cc3ccc(F)cc3)nn2)no1 | > 50 µM (inactive) |
| COc1ccccc1CNC(=O)CCCCn1c(=O)c2ccccc2n(Cc2ccc(C)cc2)c1=O | > 50 µM (inactive) |
| Cc1nn(-c2ccc(F)cc2)c(C)c1S(=O)(=O)N1CCN(c2ccccn2)CC1 | > 50 µM (inactive) |
| O=C(COc1ccccc1)Nc1ccc(-c2nc3cnccc3o2)c(O)c1 | > 50 µM (inactive) |
| CC[C@@H](C(=O)[C@@H](C)[C@@H](O)[C@H](C)CCc1ccc(C)c(O)c1C(=O)O)[C@@H]1O[C@](CC)([C@H]2CC[C@](O)(CC)[C@H](C)O2)C[C@@H]1C | 28.6 µM |
| CC(C)CC1NC(=O)C2CCCN2C1=O (stereo unspecified) | > 50 µM (inactive) |
| O=C(CSc1ccc(-c2cccc([N+](=O)[O-])c2)nn1)Nc1cccc(F)c1 | > 50 µM (inactive) |
| CC(C)c1ccc(NC(=O)COC(=O)c2ccc(NS(=O)(=O)c3ccc4c(c3)OCCO4)cc2)cc1 | > 50 µM (inactive) |
| Cc1ccc(NC(=O)Cn2cc(C(=O)c3ccccc3)c(=O)c3cc(C)ccc32)cc1 | > 50 µM (inactive) |
| CCOc1ccc(NC(=O)Cn2c(=O)n(CCCCCC(=O)NCc3ccc(F)cc3)c(=O)c3sccc32)cc1 | > 50 µM (inactive) |
| O=C1Nc2ccccc2C(=O)C1C(c1ccc(Cl)cc1)C1C(=O)Nc2ccccc2C1=O (stereo unspecified) | 44.8 µM |
| O=C(NCCc1ccccc1)c1ccc2c(=O)n(Cc3ccco3)c(=O)n(Cc3cccc([N+](=O)[O-])c3)c2c1 | 13.4 µM |
| O=C(Cn1c(=O)n(CC2CCC(C(=O)NCCc3ccccc3)CC2)c(=O)c2ccccc21)NCc1ccco1 (stereo unspecified) | > 50 µM (inactive) |
| O=c1c(S(=O)(=O)c2cc(F)cc(F)c2)c[nH]c2cc(Cl)ccc12 | > 50 µM (inactive) |
| CCCCCCCCCc1cc(OC(=O)c2c(CCCCCCCCC)cc(O)cc2O[C@@H]2O[C@H](CO)[C@@H](O)[C@H](O)[C@H]2O)cc(O)c1C(=O)O | 5.09 µM |
| O=C(Nc1ccccc1-c1nc2ccccc2[nH]1)c1sc2ccccc2c1Cl | 35.7 µM |
| N#Cc1cn2c(nc1-c1ccc(Cl)cc1)nc1ccccc12 | > 50 µM (inactive) |
| Cc1[nH]nc(NC(=O)C2COc3ccccc3O2)c1-c1ccccc1 (stereo unspecified) | > 50 µM (inactive) |

| SMILES | IC50 |
| --- | --- |
| COc1ccc(Cl)cc1NC(=O)Cn1c(=O)n(CCCCC(=O)NCCc2ccccc2)c(=O)c2ccccc21 | > 50 µM (inactive) |
| Cc1ccc(CNC(=O)CCCn2c(=O)c3sccc3n(CC(=O)OCc3ccccc3)c2=O)cc1 | > 50 µM (inactive) |
| CCCCCCCc1cc(OC(=O)c2c(CCCCCCC)cc(O)cc2O[C@@H]2O[C@H](CO)[C@@H](O)[C@H](O)[C@H]2O)cc(O)c1C(=O)O | 9.94 µM |
| N#Cc1cccc(NC(=O)COC(=O)c2n[nH]c3ccccc23)c1 | > 50 µM (inactive) |
| Cn1c(=O)[nH]c2nncnc2c1=O | > 50 µM (inactive) |
| Cn1c(=O)c2nc(-c3ccc(Cl)cc3)nnc2n(C)c1=O | > 50 µM (inactive) |
| Cc1ccc(NC(=O)Nc2ccc(C)n(CC(=O)Nc3ccc(C)cc3C)c2=O)cc1 | 40.2 µM |
| C[C@@H]1OC2=C(C(=O)c3cccc(O)c3C2=O)[C@H](O)[C@@H]1O | > 50 µM (inactive) |
| O=C(CCCC(=O)N(c1ccc2c(c1)OCCO2)C(C(=O)NC1CCCCC1)c1ccc(F)cc1)Nc1ccccn1 (stereo unspecified) | > 50 µM (inactive) |
| COC(=O)c1ccc(N2CCN(C(C)=O)CC2)c(NC(=O)COc2ccc([N+](=O)[O-])cc2)c1 | > 50 µM (inactive) |
| Cc1cc(NC(=O)c2cc(-c3cccnc3)n[nH]2)ccc1Br | 48.6 µM |
| O=C(NCc1ccc2c(c1)OCO2)c1cn(-c2cccc(Cl)c2)nn1 | > 50 µM (inactive) |
| CC(=O)N1CCc2cc(S(=O)(=O)NC(Cc3ccccc3)C(=O)Nc3cccc(Cl)c3C)ccc21 (stereo unspecified) | > 50 µM (inactive) |
| O=C(c1ccco1)N1CCC2(CC1)CC1(CO2)Nc2ccccc2-n2cccc21 (stereo unspecified) | > 50 µM (inactive) |
| CC(C)(C)C(=O)[C@@H]1[C@@H](C(=O)c2ccc3c(c2)OCO3)[C@@]2(C(=O)Nc3ccccc32)[C@H]2c3ccccc3C=CN12 | > 50 µM (inactive) |
| COc1ccc(NC(=O)c2cc(-c3cccnc3)n[nH]2)cc1Cl | > 50 µM (inactive) |
| O=C(Cn1c(=O)n(Cc2ccc(C(=O)NCc3ccco3)cc2)c(=O)c2ccccc21)Nc1ccc2c(c1)OCCO2 | > 50 µM (inactive) |
| O=c1[nH]c(C2CCN(S(=O)(=O)c3ccc(S(=O)(=O)NC4CC4)cc3)CC2)nc2c1nnn2Cc1c(Cl)cccc1Cl | > 50 µM (inactive) |
| CC(NC(=O)c1ccccc1)c1nc2ccccc2n1CC(=O)Nc1ccc(C#N)cc1 (stereo unspecified) | > 50 µM (inactive) |
| Cc1cc(NC(=O)Cn2c(=O)n(Cc3ccco3)c(=O)c3ccc(C(=O)NCCc4ccccc4)cc32)n[nH]1 | > 50 µM (inactive) |
| CCCCCCCCCC(CCCCCCCCCC(=O)O)O[C@H]1O[C@@H](COC(C)=O)[C@H](O)[C@@H](O)[C@H]1OC(=O)CC(=O)O (stereo partly specified) | > 50 µM (inactive) |
| Cc1ccc(Nc2nc3c(S(=O)(=O)c4ccccc4)nnn3c3ccccc23)c(C)c1 | 48 µM |

| SMILES | IC50 |
| --- | --- |
| CCn1cc2c(n1)c(=O)n(Cc1ccccc1)c(=O)n2CC(=O)Nc1ccc(C(C)C)cc1 | > 50 µM (inactive) |
| O=C(CSc1nc2cc(C(F)(F)F)ccc2s1)NCC(=O)c1ccccc1 | 35.8 µM |
| O=C1c2ccccc2-c2nnc(-c3ccncc3)cc21 | > 50 µM (inactive) |
| O=C(CCCn1c(=O)c2sccc2n(CC(=O)NCCC2=CCCCC2)c1=O)NCc1ccc2c(c1)OCO2 | > 50 µM (inactive) |
| Cc1ccc(NC(=O)c2ccc3nn(CC(=O)Nc4ccc(F)cc4F)c(=O)n3c2)cc1 | > 50 µM (inactive) |
| O=C(Nc1cccc(Cl)c1)c1ncn2c1CNS(=O)(=O)c1ccccc1-2 | > 50 µM (inactive) |
| Cc1ccc(N2CC(c3nc4ccccc4n3CCOc3cccc(C)c3)CC2=O)cc1 (stereo unspecified) | 42.7 µM |
| COc1cc(OC)cc(N2C(=O)N(CC(=O)c3ccc(Br)cc3)c3ccccc3S2(=O)=O)c1 | > 50 µM (inactive) |
| COc1ccc(C)cc1NC(=O)C1CC(=O)Nc2nc3ccccc3n21 (stereo unspecified) | > 50 µM (inactive) |
| COCCn1c(=O)[nH]c2cc(C(=O)NCCNc3ccc([N+](=O)[O-])cc3C#N)ccc2c1=O | > 50 µM (inactive) |
| CSc1ccc(CNC(=O)Cn2nc(C)c3c(C)n(-c4ccccc4)nc3c2=O)cc1 | 45.6 µM |
| O=c1[nH]c(C2CCN(S(=O)(=O)c3ccc(S(=O)(=O)NC4CCCC4)cc3)CC2)nc2c1nnn2Cc1cccc(Cl)c1 | > 50 µM (inactive) |
| N#Cc1c(-c2ccc(Cl)cc2)cc(-c2cccc(Br)c2)[nH]c1=O | > 50 µM (inactive) |
| O=C(Nc1ccc(F)cc1)Nc1ccccc1OCc1cc(=O)n2ccccc2n1 | > 50 µM (inactive) |
| O=C(COc1ccc(N2CC(C(=O)NCc3ccc4c(c3)OCO4)CC2=O)cc1)Nc1ccc(F)cc1 (stereo unspecified) | > 50 µM (inactive) |
| O=c1cc(-c2ccc(O)c(O)c2)oc2cc(O[C@@H]3O[C@H](CO)[C@@H](O)[C@H](O)[C@H]3O)cc(O)c12 | 0.713 µM |
| O=C(Nc1cccc([N+](=O)[O-])c1)Nc1ccc2snnc2c1 | 17.7 µM |
| O=C(Nc1nccs1)C1c2ccccc2C(=O)N(Cc2ccccc2)C12CCCC2 (stereo unspecified) | > 50 µM (inactive) |
| CCCCN1Cc2sc(NC(=O)Nc3ccccc3C)nc2C1=O | > 50 µM (inactive) |
| Cc1sc2ccn(C)c(=O)c2c1C(=O)NC1CCCC1 | > 50 µM (inactive) |
| COc1ccc(OC)c(NC(=O)c2sc(-c3ccccc3)nc2C)c1 | > 50 µM (inactive) |
| COc1ccc(NS(=O)(=O)c2cc(NC(=O)CC(=O)c3ccc([N+](=O)[O-])cc3)ccc2Cl)cc1 | > 50 µM (inactive) |

| SMILES | IC50 |
| --- | --- |
| COc1ccc(NC(=O)Cn2c(=O)n(Cc3ccco3)c(=O)c3ccc(C(=O)NC4CCCC4)cc32)cc1 | > 50 µM (inactive) |
| O=C(NCc1ccco1)c1ccc(Cn2c(=O)c3sccc3n(Cc3cc(=O)n4ccccc4n3)c2=O)cc1 | > 50 µM (inactive) |
| Cc1ccc2[nH]c(=O)c(-c3nc4ccc(C)cn4c3NCc3ccc(F)cc3)cc2c1 | 24.6 µM |
| O=C1CC(c2ccco2)Cc2[nH]c(=O)c(-c3nc(-c4ccc(Cl)cc4)cs3)cc21 (stereo unspecified) | 28.8 µM |
| O=C(NCC1(c2ccccc2)CCC1)c1nc2n(n1)-c1ccccc1S(=O)(=O)N2 | > 50 µM (inactive) |
| O=C(Cn1c(=O)n(-c2ccc(CC(=O)NC3CCCC3)cc2)c(=O)c2ccccc21)Nc1ccccc1[N+](=O)[O-] | > 50 µM (inactive) |
| Cc1cc(NS(=O)(=O)c2ccc(NC(=O)c3ccc(N4CCCC4)c([N+](=O)[O-])c3)cc2)no1 | > 50 µM (inactive) |
| CCOc1ccc2cc3c(nc2c1)OC(=O)N(Cc1ccc(OC)cc1)C3 | > 50 µM (inactive) |
| Cc1ccc(NC(=O)CSc2nnc(-c3n[nH]c4c3CCC4)n2N)cc1C | > 50 µM (inactive) |
| Cc1cccc(C(=O)Nc2cccc(SC(C(=O)Nc3ccc(Cl)c(C(=O)O)c3)c3ccccc3)c2)c1 (stereo unspecified) | 34.1 µM |
| CCOc1ccc(-c2noc(-c3nn(-c4cccc(OC)c4)ccc3=O)n2)cc1 | > 50 µM (inactive) |
| O=C(O)c1ccccc1C(=O)Nc1ccc(SC(C(=O)Nc2cccc(Cl)c2)c2ccccc2)cc1 (stereo unspecified) | > 50 µM (inactive) |
| COc1cccc(NC(=O)Cn2cc(C(=O)c3ccc(C)cc3)c(=O)c3cc(Cl)ccc32)c1 | > 50 µM (inactive) |
| Cc1ccc(NCc2cc3c(-c4cccc(F)c4)nn(-c4ccccc4)c3[nH]c2=O)cc1C | 9 µM |
| COc1ccccc1NC(=O)c1nc(-c2cn(-c3cccc(F)c3)nn2)no1 | > 50 µM (inactive) |
| Cc1cccc(NC(=O)Nc2ccccc2OCc2cc(=O)n3cccc(C)c3n2)c1 | > 50 µM (inactive) |
| NS(=O)(=O)c1ccc(CNC(=O)c2ccc(Cl)c(S(=O)(=O)Nc3cc(Cl)ccc3Cl)c2)cc1 | > 50 µM (inactive) |
| O=C1CC(O)C(C2=CC(=O)c3c(O)cccc3C2=O)O1 (stereo unspecified) | 32.9 µM |
| Cc1ccc(NC(=O)Cc2nnc3cc(-c4nc(C)no4)ccn23)cc1 | 45.4 µM |
| O=c1c2[nH]c3ccccc3c2ncn1Cc1ccncc1 | > 50 µM (inactive) |
